In patent publication US10716753B2, “Compositions for pulmonary delivery of long-acting muscarinic antagonists or long-acting B2 adrenergic receptor agonists and associated methods and systems” (priority 2009, dated 2020):

Legend:
[1] = Aerosol performance by Next Generation Impactor, USP <601> (fine particle fraction, MMAD); type: physicochemical
Method: A Next Generation Impactor (NGI) operated at a flow rate of 30 L/min was used for determination of particle size distribution. Sample canisters were seated into an actuator with two waste actuations and two additional waste priming actuations. Five actuations were collected in the NGI with a USP throat attached. The valve, actuator, throat, NGI cups, stages, and filter were rinsed with volumetrically dispensed solvent. The sample solutions were assayed using a drug specific chromatographic method. The fine particle fraction was defined using the sum of stages 3 through filter. […] Inhalers were seated and primed as described before. Two actuations were collected and assayed at beginning, middle and end of use.
A Next Generation Impactor (NGI) operated at a flow rate of 30 L/min was used for determination of particle size distribution. Sample canisters were seated into an actuator with two waste actuations and two additional waste priming actuations. Five actuations were collected in the NGI with a USP throat attached. The valve, actuator, throat, NGI cups, stages, and filter were rinsed with volumetrically dispensed solvent. The sample solutions were assayed using a drug specific chromatographic method. The fine particle fraction was defined using the sum of stages 3 through filter. […] Two actuations were collected and assayed at beginning, middle and end of use.
A Next Generation Impactor (NGI) operated at a flow rate of 30 L/min was used for determination of particle size distribution. Sample canisters were seated into an actuator with two waste actuations and two additional waste priming actuations. Five actuations were collected in the NGI with a USP throat attached. The valve, actuator, throat, NGI cups, stages, and filter were rinsed with volumetrically dispensed solvent. The sample solutions were assayed using a drug specific chromatographic method. The fine particle fraction was defined using the sum of stages 3 through filter.

[2] = Visual observation of suspension quality / co-suspension in glass vials, incl. centrifugation; type: physicochemical; details: glass vials heated to 30° C.-35° C.
From the text: Exemplary methods for assessing whether a co-suspension is present can include the following: If one particle type has a pycnometric density greater than the propellant and another particle type has a pycnometric density lower than the propellant, a visual observation of the creaming or sedimentation behavior can be employed to determine the presence of a co-suspension. The term “pycnometric density” refers to the density of a material that makes up a particle, excluding voids within the particle. In one embodiment, the materials can be formulated or transferred into a transparent vial, typically a glass vial, for visual observation. After initial agitation the vial is left undisturbed for a sufficient time for formation of a sediment or cream layer, typically 24 hours. If the sediment or cream layer is observed to be completely or mostly a uniform single layer, a co-suspension is present.
Metered dose inhalers were prepared by weighing the target masses of micronized GP particles and suspending particles into fluorinated ethylene polymer (FEP) coated aluminum canisters (Presspart, Blackburn, UK) with 19 mL volume. […]

[3] = system: patients with mild to moderate COPD; assay: Multi-center crossover clinical trial, single administration: FEV1 spirometry; type: in vivo, human; details: all doses of Glycopyrrolate MDI; tiotropium 18 μg
[4] = co-suspension MDI: 2 mg SX, 60 mg suspending particles, 10 mL HFA 134a

Q: Which Fine particle fraction [1, 4] does the source give for `OCc1cc(C(O)CNCCCCCCOCCCCc2ccccc2)ccc1O` (stereo not drawn) [SX, 4-hydroxy-α1-[[[6-(4-phenylbutoxy)hexyl]amino]methyl]-1,3-benzenedimethanol, 1-hydroxy-2-naphthalenecarboxylate] here?
A: 48%

Q: What about the MMAD [1, 4] of the same compound?
A: 3.7 μm

Q: What about the “Visual observation of active agent particles formulated alone” value [2] of the same compound?
A: sedimented rapidly

Q: What about the “Visual observation of co-suspension vial” value [2] of the same compound?
A: no SX crystals were visible at the bottom

Q: For `C[N+]1(C)CCC(OC(=O)C(O)(c2ccccc2)C2CCCC2)C1.[Br-]` (stereo not drawn) [glycopyrrolate, Pyrrolidinium, 3-((cyclopentylhydroxyphenylacetyl)oxy)-1,1-dimethyl-, bromide], which Fine particle fraction ([1]; 24 μg per actuation co-suspension MDI, initially) is on record?
A: 59.3%

Q: For `C[N+]1(C)[C@@H]2C[C@@H](OC(=O)C(O)(c3cccs3)c3cccs3)C[C@H]1[C@@H]1O[C@@H]12` [tiotropium], which “Mean time to ≥10% improvement in FEV1” value [3] is on record?
A: approximately 3 hour
